In brackets after ≈: the same amount, converted by molar mass. Activity calls are given as the source filed them. No cut-off for these calls is given here.
Experiments:
Yersinia enterocolitica [1] = experiment: Induction of cell leakage in Yersinia enterocolitica MTCC 859 assessed as release of cellular materials at MIC after 8 to 16 hrs by UV/VIS spectrophotometer analysis; format: functional, organism-based
Staphylococcus aureus [2] = experiment: Induction of cell leakage in Staphylococcus aureus ATCC 6538 assessed as release of cellular materials at MIC after 8 to 16 hrs by UV/VIS spectrophotometer analysis; format: functional, organism-based
Yersinia enterocolitica [3] = experiment: Induction of cell lysis in Yersinia enterocolitica MTCC 859 assessed as cell membrane damage at MIC by field emission scanning electron microscopy analysis; format: functional, organism-based
Staphylococcus aureus [4] = experiment: Induction of cell lysis in Staphylococcus aureus ATCC 6538 assessed as membrane disintegration and damage of cell wall at MIC by field emission scanning electron microscopy analysis; format: functional, organism-based
Yersinia enterocolitica [5] = experiment: Induction of cell damage in Yersinia enterocolitica MTCC 859 assessed as increase in fluorescence intensity at MIC after 12 hrs using propidium iodide staining by flow cytometry analysis; format: functional
Escherichia coli [6] = experiment: Induction of cell damage in enterotoxic Escherichia coli MTCC 723 assessed as increase in fluorescence intensity at MIC after 12 hrs using propidium iodide staining by flow cytometry analysis; format: functional
Salmonella paratyphi [7] = experiment: Induction of cell damage in Salmonella paratyphi A MTCC 735 assessed as increase in fluorescence intensity at MIC after 12 hrs using propidium iodide staining by flow cytometry analysis; format: functional, Salmonella enterica subsp. enterica serovar Paratyphi A
Escherichia coli [8] = experiment: Induction of cell damage in Escherichia coli ATCC 25922 assessed as increase in fluorescence intensity at MIC after 12 hrs using propidium iodide staining by flow cytometry analysis; format: functional
Listeria monocytogenes [9] = experiment: Induction of cell damage in Listeria monocytogenes ATCC 19115 assessed as increase in fluorescence intensity at MIC after 12 hrs using propidium iodide staining by flow cytometry analysis; format: functional
Bacillus cereus [10] = experiment: Induction of cell damage in Bacillus cereus ATCC 11778 assessed as increase in fluorescence intensity at MIC after 12 hrs using propidium iodide staining by flow cytometry analysis; format: functional
Staphylococcus aureus [11] = experiment: Induction of cell damage in Staphylococcus aureus ATCC 6538 assessed as increase in fluorescence intensity at MIC after 12 hrs using propidium iodide staining by flow cytometry analysis; format: functional
Yersinia enterocolitica [12] = experiment: Antibacterial activity against Yersinia enterocolitica MTCC 859 after 24 hrs; format: functional; details: MTCC 859, 24 h
Escherichia coli [13] = experiment: Antibacterial activity against enterotoxic Escherichia coli MTCC 723 after 24 hrs; format: functional; details: MTCC 723, 24 h
Escherichia coli [14] = experiment: Antibacterial activity against Escherichia coli ATCC 25922 after 24 hrs; format: functional; details: ATCC 25922, 24 h
Salmonella paratyphi [15] = experiment: Antibacterial activity against Salmonella paratyphi A MTCC 735 after 24 hrs; format: functional, Salmonella enterica subsp. enterica serovar Paratyphi A; details: Salmonella enterica, MTCC 735, 24 h
Listeria monocytogenes [16] = experiment: Antibacterial activity against Listeria monocytogenes ATCC 19115 after 24 hrs; format: functional; details: ATCC 19115, 24 h
Bacillus cereus [17] = experiment: Antibacterial activity against Bacillus cereus ATCC 11778 after 24 hrs; format: functional; details: ATCC 11778, 24 h
Staphylococcus aureus [18] = experiment: Antibacterial activity against Staphylococcus aureus ATCC 6538 after 24 hrs; format: functional; details: ATCC 6538, 24 h
Yersinia enterocolitica [19] = experiment: Antibacterial activity against Yersinia enterocolitica MTCC 859 after 18 hrs by microdilution method; format: functional; details: MTCC 859, 18 h
Escherichia coli [20] = experiment: Antibacterial activity against enterotoxic Escherichia coli MTCC 723 after 18 hrs by microdilution method; format: functional; details: MTCC 723, 18 h
Escherichia coli [21] = experiment: Antibacterial activity against Escherichia coli ATCC 25922 after 18 hrs by microdilution method; format: functional; details: ATCC 25922, 18 h
Salmonella paratyphi [22] = experiment: Antibacterial activity against Salmonella paratyphi A MTCC 735 after 18 hrs by microdilution method; format: functional, Salmonella enterica subsp. enterica serovar Paratyphi A; details: Salmonella enterica, MTCC 735, 18 h
Listeria monocytogenes [23] = experiment: Antibacterial activity against Listeria monocytogenes ATCC 19115 after 18 hrs by microdilution method; format: functional; details: ATCC 19115, 18 h
Bacillus cereus [24] = experiment: Antibacterial activity against Bacillus cereus ATCC 11778 after 18 hrs by microdilution method; format: functional; details: ATCC 11778, 18 h
Staphylococcus aureus [25] = experiment: Antibacterial activity against Staphylococcus aureus ATCC 6538 after 18 hrs by microdilution method; format: functional; details: ATCC 6538, 18 h

C=C1CC[C@H]2C(C)(C)CCC[C@]2(C)[C@H]1C/C=C(/C=O)CC=O
Activity (Yersinia enterocolitica [1]): Active | Activity (Staphylococcus aureus [2]): Active | Activity (Yersinia enterocolitica [3]): Active | Activity (Staphylococcus aureus [4]): Active | RFU (Yersinia enterocolitica [5]): 80.7 | RFU (Escherichia coli [6]): 139 | RFU (Salmonella paratyphi [7]): 78.5 | RFU (Escherichia coli [8]): 146 | RFU (Listeria monocytogenes [9]): 70.9 | RFU (Bacillus cereus [10]): 117 | RFU (Staphylococcus aureus [11]): 114 | MBC (Yersinia enterocolitica [12]): 25 µg/mL (≈ 82.7 µM) | MBC (Escherichia coli [13]): 25 µg/mL (≈ 82.7 µM) | MBC (Escherichia coli [14]): 50 µg/mL (≈ 165 µM) | MBC (Salmonella paratyphi [15]): 12.5 µg/mL (≈ 41.3 µM) | MBC (Listeria monocytogenes [16]): 25 µg/mL (≈ 82.7 µM) | MBC (Bacillus cereus [17]): 12.5 µg/mL (≈ 41.3 µM) | MBC (Staphylococcus aureus [18]): 25 µg/mL (≈ 82.7 µM) | MIC (Yersinia enterocolitica [19]): 12.5 µg/mL (≈ 41.3 µM) | MIC (Escherichia coli [20]): 25 µg/mL (≈ 82.7 µM) | MIC (Escherichia coli [21]): 25 µg/mL (≈ 82.7 µM) | MIC (Salmonella paratyphi [22]): 12.5 µg/mL (≈ 41.3 µM) | MIC (Listeria monocytogenes [23]): 25 µg/mL (≈ 82.7 µM) | MIC (Bacillus cereus [24]): 12.5 µg/mL (≈ 41.3 µM) | MIC (Staphylococcus aureus [25]): 12.5 µg/mL (≈ 41.3 µM)

CC1(C)CCC[C@@]2(C)[C@H]1CC[C@@]1(CO1)[C@@H]2C/C=C(/C=O)CC=O [AFRAMODIAL]
Activity (Yersinia enterocolitica [1]): Active | Activity (Staphylococcus aureus [2]): Active | Activity (Yersinia enterocolitica [3]): Active | Activity (Staphylococcus aureus [4]): Active | RFU (Yersinia enterocolitica [5]): 117 | RFU (Escherichia coli [6]): 153 | RFU (Salmonella paratyphi [7]): 87.6 | RFU (Escherichia coli [8]): 187 | RFU (Listeria monocytogenes [9]): 89.9 | RFU (Bacillus cereus [10]): 118 | RFU (Staphylococcus aureus [11]): 119 | MBC (Yersinia enterocolitica [12]): 3.38 µg/mL (≈ 10.6 µM) | MBC (Escherichia coli [13]): 6.75 µg/mL (≈ 21.2 µM) | MBC (Escherichia coli [14]): 12.5 µg/mL (≈ 39.3 µM) | MBC (Salmonella paratyphi [15]): 12.5 µg/mL (≈ 39.3 µM) | MBC (Listeria monocytogenes [16]): 12.5 µg/mL (≈ 39.3 µM) | MBC (Bacillus cereus [17]): 6.75 µg/mL (≈ 21.2 µM) | MBC (Staphylococcus aureus [18]): 6.75 µg/mL (≈ 21.2 µM) | MIC (Yersinia enterocolitica [19]): 3.38 µg/mL (≈ 10.6 µM) | MIC (Escherichia coli [20]): 6.75 µg/mL (≈ 21.2 µM) | MIC (Escherichia coli [21]): 12.5 µg/mL (≈ 39.3 µM) | MIC (Salmonella paratyphi [22]): 6.75 µg/mL (≈ 21.2 µM) | MIC (Listeria monocytogenes [23]): 12.5 µg/mL (≈ 39.3 µM) | MIC (Bacillus cereus [24]): 6.75 µg/mL (≈ 21.2 µM) | MIC (Staphylococcus aureus [25]): 3.38 µg/mL (≈ 10.6 µM)
